Assay results: publication PMC8143184, “Exploring the Diversity of Fungal DyPs in Mangrove Soils to Produce and Characterize Novel Biocatalysts” (Journal of Fungi, 2021)
Like-named read-outs stand apart in the source and are kept apart here.

Tests used:
[1] = test system: T1, DyP1 (OFU1; recombinant DyP1 from mangrove soils); experiment: dye decolorization at […] nm, Michaelis-Menten fit; format: biochemical; conditions: H2O2 0.25 mM co-substrate; 100 mM citrate-phosphate pH 2.6; 30 °C; read-out: Parameters / Km
T1 construct: codon-optimized synthetic cDNA from environmental cDNA capture; secreted from Pichia pastoris X33 (pPICZalphaA), C-terminal His6 tag; expected 55 kDa, about 70 kDa glycosylated on SDS-PAGE

[2] = test system: DyP1 (OFU1; recombinant DyP1 from mangrove soils); conditions: read-out: Parameters / Km; H2O2 0.25 mM co-substrate; 100 mM citrate-phosphate pH 3; 30 °C

SMILES | Km [1] [µM] | Km [2] [µM]
Nc1c(S(=O)(=O)O)cc(Nc2cccc(S(=O)(=O)CCOS(=O)(=O)O)c2)c2c1C(=O)c1ccccc1C2=O [RB19] | 1500 ± 878 | 
CCn1c(=NN=c2sc3cc(S(=O)(=O)O)ccc3n2CC)sc2cc(S(=O)(=O)O)ccc21 [ABTS] |  | 651 ± 81
